This is an account of results in ChEMBL document CHEMBL5291721, “A preclinical secondary pharmacology resource illuminates target-adverse drug reaction associations of marketed drugs” (Nat Commun, 2023).

Some results are limits rather than exact numbers.

For assay [1], the target named is T1, Gamma-aminobutyric acid receptor subunit alpha-1/alpha-2/beta-2/gamma-2 (Homo sapiens, UniProt P14867+P18507+P47869+P47870). Type of assay: functional, cell-based.
Assay [2] deals with T1, Gamma-aminobutyric acid receptor subunit alpha-1/alpha-2/beta-2/gamma-2. The assay is classed as functional, cell-based. This is another data set of the same source.
The target in assay [3] is T2, Muscarinic acetylcholine receptor M1 (Homo sapiens, UniProt P11229).
T2 sequence (P11229 whole entry): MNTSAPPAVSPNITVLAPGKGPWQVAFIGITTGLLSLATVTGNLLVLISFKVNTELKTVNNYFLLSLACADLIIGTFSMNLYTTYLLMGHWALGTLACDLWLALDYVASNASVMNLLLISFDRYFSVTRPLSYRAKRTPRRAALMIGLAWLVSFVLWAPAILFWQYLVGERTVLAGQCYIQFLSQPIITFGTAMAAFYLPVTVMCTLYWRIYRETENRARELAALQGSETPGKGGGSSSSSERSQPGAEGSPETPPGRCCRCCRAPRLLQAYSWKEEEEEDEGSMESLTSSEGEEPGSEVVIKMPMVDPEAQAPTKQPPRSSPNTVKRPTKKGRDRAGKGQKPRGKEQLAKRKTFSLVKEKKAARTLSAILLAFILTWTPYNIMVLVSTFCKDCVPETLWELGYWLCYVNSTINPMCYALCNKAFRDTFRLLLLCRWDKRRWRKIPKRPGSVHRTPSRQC

For assay [4], the target named is T3, Endothelin receptor type B (Homo sapiens, UniProt P24530).
T3 sequence (P24530 whole entry): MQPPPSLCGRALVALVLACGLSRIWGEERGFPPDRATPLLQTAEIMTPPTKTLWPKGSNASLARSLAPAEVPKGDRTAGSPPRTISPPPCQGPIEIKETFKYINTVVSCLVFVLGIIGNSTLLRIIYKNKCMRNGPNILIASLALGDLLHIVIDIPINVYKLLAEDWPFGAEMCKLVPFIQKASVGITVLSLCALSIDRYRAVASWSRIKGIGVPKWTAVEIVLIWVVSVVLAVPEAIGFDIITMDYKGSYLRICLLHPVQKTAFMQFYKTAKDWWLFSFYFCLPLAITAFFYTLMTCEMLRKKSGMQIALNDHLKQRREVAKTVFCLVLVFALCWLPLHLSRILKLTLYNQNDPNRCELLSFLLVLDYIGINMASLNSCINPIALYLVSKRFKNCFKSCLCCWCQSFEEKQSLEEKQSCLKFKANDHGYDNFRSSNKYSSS

Assay [5] addresses T4, Corticotropin-releasing factor receptor 1 (Homo sapiens, UniProt P34998).
T4 sequence (P34998 whole entry): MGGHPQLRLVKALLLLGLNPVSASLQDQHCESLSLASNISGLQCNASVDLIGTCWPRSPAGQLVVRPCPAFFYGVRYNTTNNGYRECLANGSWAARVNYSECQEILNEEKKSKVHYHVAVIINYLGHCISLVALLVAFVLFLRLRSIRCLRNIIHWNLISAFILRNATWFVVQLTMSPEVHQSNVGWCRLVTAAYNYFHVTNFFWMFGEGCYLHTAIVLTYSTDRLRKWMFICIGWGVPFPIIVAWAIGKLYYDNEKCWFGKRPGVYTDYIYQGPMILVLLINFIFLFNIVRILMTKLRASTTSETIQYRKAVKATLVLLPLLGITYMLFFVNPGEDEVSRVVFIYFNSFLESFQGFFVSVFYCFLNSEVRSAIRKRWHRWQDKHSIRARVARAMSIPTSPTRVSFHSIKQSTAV

For assay [6], the target named is T5, Neuropeptide Y receptor type 2 (Homo sapiens, UniProt P49146).
T5 sequence (P49146 whole entry): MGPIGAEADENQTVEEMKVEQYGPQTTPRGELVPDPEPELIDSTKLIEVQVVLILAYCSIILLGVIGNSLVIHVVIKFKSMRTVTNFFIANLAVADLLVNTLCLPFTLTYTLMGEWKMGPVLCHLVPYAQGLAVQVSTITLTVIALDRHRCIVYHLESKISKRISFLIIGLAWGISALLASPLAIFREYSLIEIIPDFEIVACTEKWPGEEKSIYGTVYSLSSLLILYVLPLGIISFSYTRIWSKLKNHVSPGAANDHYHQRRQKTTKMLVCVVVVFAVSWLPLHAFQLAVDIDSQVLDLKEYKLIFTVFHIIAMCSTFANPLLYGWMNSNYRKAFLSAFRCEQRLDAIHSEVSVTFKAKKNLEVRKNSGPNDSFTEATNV

The target of assay [7] is T6, Corticotropin-releasing factor receptor 2 (Homo sapiens, UniProt Q13324).
T6 sequence (Q13324 whole entry): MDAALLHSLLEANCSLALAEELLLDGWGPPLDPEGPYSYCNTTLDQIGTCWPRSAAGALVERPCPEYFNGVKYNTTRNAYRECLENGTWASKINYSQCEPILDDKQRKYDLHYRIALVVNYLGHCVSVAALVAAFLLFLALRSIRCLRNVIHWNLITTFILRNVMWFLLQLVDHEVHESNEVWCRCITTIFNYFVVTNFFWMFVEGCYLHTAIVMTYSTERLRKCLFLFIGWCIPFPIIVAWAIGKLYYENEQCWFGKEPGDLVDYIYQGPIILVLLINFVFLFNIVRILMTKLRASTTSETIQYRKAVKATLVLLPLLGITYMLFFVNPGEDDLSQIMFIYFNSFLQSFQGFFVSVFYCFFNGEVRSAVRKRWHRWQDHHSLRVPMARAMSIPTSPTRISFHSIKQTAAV

The target of assay [8] is Neurotensin receptor type 1 (Homo sapiens, UniProt P30989).
Assay [9] deals with Beta-3 adrenergic receptor (Homo sapiens, UniProt P13945).
Assay [10] concerns the target T7, Gastric inhibitory polypeptide receptor (Homo sapiens, UniProt P48546).
T7 sequence (P48546 whole entry): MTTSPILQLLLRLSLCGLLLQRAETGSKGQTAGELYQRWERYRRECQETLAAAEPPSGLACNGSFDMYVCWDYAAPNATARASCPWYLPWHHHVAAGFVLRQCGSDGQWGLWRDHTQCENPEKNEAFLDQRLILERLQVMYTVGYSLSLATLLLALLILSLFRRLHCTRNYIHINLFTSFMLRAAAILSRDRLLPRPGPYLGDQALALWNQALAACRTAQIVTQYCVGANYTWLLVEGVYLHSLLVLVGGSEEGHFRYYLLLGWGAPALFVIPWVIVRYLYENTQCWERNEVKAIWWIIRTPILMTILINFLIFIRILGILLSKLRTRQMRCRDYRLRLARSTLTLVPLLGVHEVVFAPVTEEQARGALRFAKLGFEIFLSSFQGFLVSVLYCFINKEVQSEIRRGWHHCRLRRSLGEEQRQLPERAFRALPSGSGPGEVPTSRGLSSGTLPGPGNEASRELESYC
Also: assay procedure not described here.

Chain of Beta-3 adrenergic receptor (P13945 whole entry): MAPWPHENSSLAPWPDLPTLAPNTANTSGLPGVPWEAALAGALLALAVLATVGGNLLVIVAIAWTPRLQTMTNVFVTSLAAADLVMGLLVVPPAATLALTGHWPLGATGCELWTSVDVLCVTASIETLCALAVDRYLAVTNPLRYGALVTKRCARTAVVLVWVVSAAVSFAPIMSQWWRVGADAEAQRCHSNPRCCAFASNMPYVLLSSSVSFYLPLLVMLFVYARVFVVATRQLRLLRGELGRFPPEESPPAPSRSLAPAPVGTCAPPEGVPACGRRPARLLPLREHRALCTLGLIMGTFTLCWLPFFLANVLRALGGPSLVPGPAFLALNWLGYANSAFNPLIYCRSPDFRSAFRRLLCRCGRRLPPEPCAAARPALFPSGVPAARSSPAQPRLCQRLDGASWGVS
Chain of Neurotensin receptor type 1 (P30989 whole entry): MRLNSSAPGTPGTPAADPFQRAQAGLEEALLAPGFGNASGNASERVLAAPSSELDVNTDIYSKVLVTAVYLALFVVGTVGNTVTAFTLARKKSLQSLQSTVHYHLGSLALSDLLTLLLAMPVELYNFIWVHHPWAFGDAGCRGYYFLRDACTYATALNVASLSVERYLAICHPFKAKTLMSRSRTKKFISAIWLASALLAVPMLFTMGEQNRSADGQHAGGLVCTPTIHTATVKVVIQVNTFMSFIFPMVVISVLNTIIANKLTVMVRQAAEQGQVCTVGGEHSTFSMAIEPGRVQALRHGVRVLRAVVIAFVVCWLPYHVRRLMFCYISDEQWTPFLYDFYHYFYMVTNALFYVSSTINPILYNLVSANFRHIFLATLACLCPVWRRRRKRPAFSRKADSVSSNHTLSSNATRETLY
T1 sequence (P14867 whole entry): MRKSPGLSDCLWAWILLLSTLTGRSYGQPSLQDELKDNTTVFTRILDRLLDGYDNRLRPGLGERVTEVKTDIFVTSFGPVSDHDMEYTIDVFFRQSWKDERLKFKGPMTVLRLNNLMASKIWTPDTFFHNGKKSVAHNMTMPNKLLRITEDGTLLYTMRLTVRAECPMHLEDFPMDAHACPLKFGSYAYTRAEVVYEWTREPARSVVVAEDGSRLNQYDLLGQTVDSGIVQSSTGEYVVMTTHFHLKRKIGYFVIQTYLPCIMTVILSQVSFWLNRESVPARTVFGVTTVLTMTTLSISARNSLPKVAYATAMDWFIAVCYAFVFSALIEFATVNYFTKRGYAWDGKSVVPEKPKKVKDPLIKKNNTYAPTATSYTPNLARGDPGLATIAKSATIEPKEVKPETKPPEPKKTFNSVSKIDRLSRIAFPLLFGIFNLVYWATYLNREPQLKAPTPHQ
T1 sequence (P47870 whole entry): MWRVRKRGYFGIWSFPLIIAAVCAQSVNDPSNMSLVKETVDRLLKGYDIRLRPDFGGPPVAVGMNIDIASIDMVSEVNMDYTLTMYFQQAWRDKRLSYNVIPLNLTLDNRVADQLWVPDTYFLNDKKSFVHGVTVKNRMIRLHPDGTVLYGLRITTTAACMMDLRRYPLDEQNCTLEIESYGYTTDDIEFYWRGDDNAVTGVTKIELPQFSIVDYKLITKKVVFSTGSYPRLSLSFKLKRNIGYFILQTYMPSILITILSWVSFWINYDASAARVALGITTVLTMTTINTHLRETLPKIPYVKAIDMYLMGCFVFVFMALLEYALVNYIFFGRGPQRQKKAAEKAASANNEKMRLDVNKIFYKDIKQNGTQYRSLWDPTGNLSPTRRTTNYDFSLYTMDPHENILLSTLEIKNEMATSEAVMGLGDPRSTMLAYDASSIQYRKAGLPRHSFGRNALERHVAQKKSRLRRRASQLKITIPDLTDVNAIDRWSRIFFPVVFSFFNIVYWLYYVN
T1 sequence (P18507 whole entry): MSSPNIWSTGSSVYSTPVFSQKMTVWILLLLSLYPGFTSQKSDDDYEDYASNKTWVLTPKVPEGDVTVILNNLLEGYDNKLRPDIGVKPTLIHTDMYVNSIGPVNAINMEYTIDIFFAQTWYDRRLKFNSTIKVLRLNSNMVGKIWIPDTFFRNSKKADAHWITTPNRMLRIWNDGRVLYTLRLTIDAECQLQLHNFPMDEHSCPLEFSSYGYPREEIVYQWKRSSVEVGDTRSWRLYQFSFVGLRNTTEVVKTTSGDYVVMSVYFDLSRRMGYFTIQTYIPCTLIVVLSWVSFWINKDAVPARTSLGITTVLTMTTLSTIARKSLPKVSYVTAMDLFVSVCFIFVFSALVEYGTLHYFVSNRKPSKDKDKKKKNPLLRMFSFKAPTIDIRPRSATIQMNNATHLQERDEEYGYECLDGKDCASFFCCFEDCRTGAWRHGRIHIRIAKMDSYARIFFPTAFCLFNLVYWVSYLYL
T1 sequence (P47869 whole entry): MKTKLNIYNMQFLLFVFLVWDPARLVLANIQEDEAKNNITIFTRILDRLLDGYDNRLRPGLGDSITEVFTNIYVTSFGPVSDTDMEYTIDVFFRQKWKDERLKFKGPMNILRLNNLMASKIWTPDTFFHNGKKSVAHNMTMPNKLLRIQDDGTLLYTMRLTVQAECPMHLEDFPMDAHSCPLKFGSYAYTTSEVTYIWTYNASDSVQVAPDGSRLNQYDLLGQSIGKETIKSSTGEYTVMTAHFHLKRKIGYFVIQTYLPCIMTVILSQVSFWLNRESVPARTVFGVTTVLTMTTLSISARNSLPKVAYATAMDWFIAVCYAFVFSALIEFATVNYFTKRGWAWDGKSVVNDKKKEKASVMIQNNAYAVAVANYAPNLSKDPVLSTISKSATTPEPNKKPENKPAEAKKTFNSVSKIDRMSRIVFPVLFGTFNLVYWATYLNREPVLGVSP

The AC50 is the concentration giving half of the maximal activity seen. In the case of `CO/N=C(\C(=O)N[C@@H]1C(=O)N2C(C(=O)OCOC(=O)C(C)(C)C)=C(C)CS[C@H]12)c1csc(N)n1`, the AC50 in assay [1], in assay [2] and in assay [3] was greater than 30 µM throughout.

In turn, `O=C(Cn1ccnc1[N+](=O)[O-])NCc1ccccc1` [BENZNIDAZOLE] yielded an AC50 in [3] greater than 30 µM.

`CCCC(=O)N1CCCN(c2nc(N)c3cc(OC)c(OC)cc3n2)CC1` [BUNAZOSIN]: the AC50 in [1] and in assay [2] was greater than 30 µM throughout.

Consider `C[N+](C)(C)CCOC(N)=O` [CARBAMOYLCHOLINE], for which the AC50 in assay [2] is greater than 30 µM.

`COCC1=C(C(=O)OC(C)OC(=O)OC(C)C)N2C(=O)[C@@H](NC(=O)/C(=N\OC)c3csc(N)n3)[C@H]2SC1` (some centres undefined) [CEFPODOXIME PROXETIL]: the AC50 in [1], in assay [2] and in assay [3] was greater than 30 µM in each case.

For `CC(C)(N)Cc1ccc(Cl)cc1` [CHLORPHENTERMINE], the AC50 in assay [4], in [5], in [6], in [7], in assay [8] and in assay [9] was greater than 30 µM in each case. The compound also came in with an AC50 in assay [10] greater than 30 µM.

In the case of `NS(=O)(=O)c1cc2c(cc1Cl)NC(CC1CCCC1)NS2(=O)=O` (centres undefined) [CYCLOPENTHIAZIDE], the AC50 in [1], in assay [2] and in assay [3] was greater than 30 µM each time.

The compound `Nc1nc(-n2cc(C(=O)O)c(=O)c3cc(F)c(N4CC(O)C4)c(Cl)c32)c(F)cc1F` [DELAFLOXACIN] came in with an AC50 in assay [3] greater than 30 µM.

With `O=C(Nc1ccccc1)OCC(CN1CCCCC1)OC(=O)Nc1ccccc1` (centres undefined) [DIPERODON], the AC50 in assay [4], in [5], in assay [6], in assay [7], in assay [8] and in assay [9] was greater than 30 µM each time. In [10], this compound showed an AC50 greater than 30 µM.

With `N/N=c1/cc2c(n[nH]1)CCN(C(=O)c1ccccc1)C2` [ENDRALAZINE], the AC50 in assay [1], in assay [2] and in [3] was greater than 30 µM in each case.

With `C=C1C[C@@H]2[C@H](CC[C@]3(C)C(=O)CC[C@@H]23)[C@@]2(C)C=CC(=O)C=C12` [EXEMESTANE], the AC50 in assay [4], in assay [5], in assay [6], in assay [7], in [8] and in assay [9] was greater than 30 µM in each case. The same compound displayed an AC50 in assay [10] greater than 30 µM.

In turn, `CC(C)=CCC1C(=O)N(c2ccccc2)N(c2ccccc2)C1=O` [FEPRAZONE] came in with an AC50 in assay [3] greater than 30 µM.

On to `CN1C(=O)N(C)C2C1N(C)C(=O)N2C` (centres undefined) [MEBICAR], for which the AC50 in [1], in assay [2] and in assay [3] was greater than 30 µM in each case.

As to `NC(=O)c1cccc2cn(-c3ccc([C@@H]4CCCNC4)cc3)nc12` [NIRAPARIB], the AC50 in assay [3] was determined as 15.3 µM.

For the compound `Nc1ccc(/N=N/c2ccccc2)c(N)n1` [PHENAZOPYRIDINE], the AC50 in assay [1], in assay [2] and in assay [3] was greater than 30 µM in each case.

As to `CN(C)CCCN1c2ccccc2Sc2ccccc21` [PROMAZINE], the AC50 in assay [4], in assay [5], in [6], in assay [7], in [8] and in assay [9] was greater than 30 µM throughout. The AC50 in assay [10] was greater than 30 µM.

`O=C(O)CCn1c2c(c3ccccc31)C[C@H](NS(=O)(=O)c1ccc(F)cc1)CC2` [RAMATROBAN]: the AC50 in assay [4] and in assay [6] was greater than 10 µM throughout.

Turning to `O=P(O)(O)C(O)(Cc1cccnc1)P(=O)(O)O` [RISEDRONIC ACID], the AC50 in assay [4], in assay [5], in [6], in assay [7], in assay [8] and in assay [9] was greater than 30 µM in each case. Besides, the AC50 in assay [10] was greater than 30 µM.

In the case of `O=C1CCC(N2C(=O)c3ccccc3C2=O)C(=O)N1` (centres undefined) [THALIDOMIDE], the AC50 in assay [4], in assay [5], in [6], in assay [7], in assay [8] and in [9] was greater than 30 µM each time. This compound also had an AC50 in [10] greater than 30 µM.
